Data as given in patent US20130310256A1, “HERBICIDAL COMPOSITIONS COMPRISING 4-AMINO-3-CHLORO-5-FLUORO-6-(4-CHLORO-2-FLUORO-3-METHOXYPHENYL) PYRIDINE-2-CARBOXYLIC ACID OR A DERIVATIVE THEREOF AND VLCFA AND LIPID SYNTHESIS INHIBITING HERBICIDES” (DOW AGROSCIENCES LLC, priority 2008, published 2013).

Key:
POLHP = test: Example V: field trial, in-water application to transplanted rice, Niigata, Japan; format: in vivo, Polygonum hydropiperoides; details: 31 DAA, submerged weeds
Procedure: Post and pre-emergence field trials were conducted in Niigata, Japan. Trial sites were located in commercially grown fields of transplanted rice (Oryza sativa, variety: Koshihikari) using standard herbicide small plot research methodology. The trial plot size was 2 meters (m)×2 m with 3 replications. The nursery plants were grown in the greenhouse using practical methods and transplanted into the field at the 2.5-leaf stage on May 7, 2012. The row and in-row spaces were 30 cm and 17 cm, respectively. The crop was grown using normal cultural practices for fertilization, water management and maintenance to ensure good growth of the crop and the weeds.
Treatments consisted of the benzyl ester of 4-amino-3-chloro-5-fluoro-6-(4-chloro-2-fluoro-3-methoxyphenyl)pyridine-2-carboxylic acid (Compound A) formulated as an SC (suspension concentrate) and various herbicidal components alone and in combination. Compound A benzyl ester was applied on an active ingredient basis. […]
Compound A benzyl ester SC was once diluted in 100 mL water in the 200 mL bottle/plot to achieve the desired rates and applied by water injection. […] Visual weed control was scored on a scale of 0 to 100 percent where 0 corresponds to no injury and 100 corresponds to complete kill. […]

SCPJU = test: Example II: in-water applied weed control, transplanted paddy rice, greenhouse; format: in vivo, Schoenoplectus juncoides (Roxb.) Palla (Japanese bulrush)
Procedure: Weed seeds or nutlets of the desired test plant species were planted in puddled soil (mud) prepared by mixing a shredded, non-sterilized mineral soil (50.5 percent silt, 25.5 percent clay, and 24 percent sand, with a pH of about 7.6 and an organic matter content of about 2.9 percent) and water at a 1:1 volumetric ratio. The prepared mud was dispensed in 365 mL aliquots into 16-ounce (oz.) non-perforated plastic pots with a surface area of 86.59 square centimeters (cm^2) leaving a headspace of 3 centimeters (cm) in each pot. Mud was allowed to dry overnight prior to planting or transplanting. Rice seeds were planted in Sun Gro MetroMix® 306 planting mixture, which typically has a pH of 6.0 to 6.8 and an organic matter content of about 30 percent, in plastic plug trays. Seedlings at the second or third leaf stage of growth were transplanted into 840 mL of mud contained in 32-oz. non-perforated plastic pots with a surface area of 86.59 cm^2 4 days prior to herbicide application. The paddy was created by filling the headspace of the pots with 2.5 to 3 cm of water. When required to ensure good germination and healthy plants, a fungicide treatment and/or other chemical or physical treatment was applied. The plants were grown for 4-22 days in a greenhouse with an approximate 14 hr photoperiod which was maintained at about 29′C during the day and 26° C. during the night. Nutrients were added as Osmocote® (19:6:12, N:P:K+ minor nutrients) at 2 g per 16-oz. pot and 4 g per 32-oz. pot. […]
Treatment requirements for each compound or herbicidal component were calculated based upon the rates being tested, the concentration of active ingredient or acid equivalent in the formulation, an application volume of 2 mL per component per pot, and an application area of 86.59 cm^2 per pot.
For formulated compounds, a measured amount was placed in an individual 100 or 200 mL glass vial and was dissolved in a volume of 1.25% (v/v) Agri-Dex® crop oil concentrate to obtain application solutions. […]

COc1c(Cl)ccc(-c2nc(C(=O)OCc3ccccc3)c(Cl)c(N)c2F)c1F [Compound A Benzyl Ester, benzyl ester of 4-amino-3-chloro-5-fluoro-6-(4-chloro-2-fluoro-3-methoxy-phenyl)pyridine-2-carboxylic acid]
Visual Weed Control POLHP Obs (POLHP; 100 gai/ha): 68.3%

COc1c(Cl)ccc(-c2nc(C(=O)O)c(Cl)c(N)c2F)c1F [Compound A Acid, 4-amino-3-chloro-6-(4-chloro-2-fluoro-3-methoxyphenyl)-5-fluoropyridine-2-carboxylic acid]
Visual Weed Control (%) - 20 DAA SCPJU Obs (SCPJU; 8.75 gae/ha): 40%

CCS(=O)(=O)Oc1ccc2c(c1)C(C)(C)CO2 [Benfuresate, 2,3-dihydro-3,3-dimethyl-5-benzofuranyl ethanesulfonate]
Visual Weed Control POLHP Obs (POLHP; 600 gai/ha): 94.3%

CCCOCCN(C(=O)CCl)c1c(CC)cccc1CC [Pretilachlor, 2-chloro-N-(2,6-diethylphenyl)-N-(2-propoxyethyl)acetamide]
Visual Weed Control (%) - 20 DAA SCPJU Obs (SCPJU; 75 gai/ha): 50% | Visual Weed Control (%) - 20 DAA SCPJU Obs (SCPJU; 150 gai/ha): 20%
